Experimental data published in US11993640B2, “Treating inflammatory lung disease” (United States Government as represented by the Department …, priority 2019, dated 2024).
Non-standard residues stand in square brackets, D forms with d. Residues, ends and D or L forms follow the SMILES beside them. *: point of attachment. Phenylacetyl(2,3,4,5,6-F5) = O=C(Cc1c(F)c(F)c(F)c(F)c1F)*; Phe(F5) = N[C@@H](Cc1c(F)c(F)c(F)c(F)c1F)C(=O)O; hArg = N=C(N)NCCCC[C@H](N)C(=O)O; 12Ado = NCCCCCCCCCCCC(=O)O; Nle = CCCC[C@H](N)C(=O)O; Orn = NCCC[C@H](N)C(=O)O; Abu = CC[C@H](N)C(=O)O; PhAc = O=C(Cc1ccccc1)*

Experiments:
NCI-N87 xenograft = assay: Xenograft tumor growth in nude mice, stomach cancer N87; type: in vivo; conditions: Panel D, 10 weeks
Procedure: The peptides' activity was compared with GHRH antagonist MIA-602. All statistical analyzses were performed from comparing GHRA antagonists to non-treated tumor (control).
Peptides and chemicals. GHRH antagonists MIA-602 and AVR-GHRH antagonists (see Table 2 above) were synthesized by solid phase methods and purified by HPLC. The peptides were dissolved in DMSO and further diluted in 10% 1, 2-propanediol. The final concentration of peptides was 50 µg/ml in 10% 1, 2-propanediol containing 0.1% of DMSO.
(§1) Cell culture. Human cancer cell lines including pancreatic (PANC-1 and CFPAC-1), lung (HCC827 and H460), stomach (NCI-N87), prostate (PC3), brest (MX-1 and HCC-1806), colorectal (HT-29), and ovarian (SK-OV-3 and OVCAR-3) were obtained from the American Type Culture Collection (ATCC) and cultured at 37° C. in a humidified 95% air/5% CO2 atmosphere in the medium recommended by ATCC.
Xenograft models of human cancers in nude mice. Female athymic (NCr nu/nu) nude mice, 5-to 6-weeks-old, obtained from the Envigo labs (Tampa, FL), were housed in laminar airflow cabinets under pathogen-free conditions with a 12-h light/12-h dark schedule, and were fed autoclaved standard chow and water. To generate mice with xenografted tumors, tumor xenografts were initiated by subcutaneous (s.c.) injection of […] human cancer cells into female nude mice. After about 4 weeks the resulting tumors were dissected and collected after removing necrosis tissues. The tumors were then cut into particles with size of ˜3 mm3 and transplanted s.c. by trocar needle into experimental animals. When tumors grew to the size of 50-60 mm3 (by volume), […] of 5 μg of GHRH antagonists MIA-602 or AVR-compounds (2-10 μg as indicated), or vehicle solutions (0.1% DMSO in 10% 1, 2-propanediol) respectively. Tumor sizes were measured weekly.
Statistical analysis. One-way ANOVA followed by Bonferroni comparison were performed. Data are expressed as Mean±SEM. To determine statistical significance between animal groups, two-tailed Student's t-test was conducted. Differences were considered significant when p<0.05.
Results. […] FIG. 1A-N represents in vivo inhibition of tumor growth during the treatment with GHRH antagonist MIA-602 and selected AVR antagonists in nude mice xenografted with various human tumors including pancreatic cancer PANC-1 (FIG. 1A) and CFPAC-1 (FIG. 1I); lung cancer HCC827 (FIGS. 1B, C) and H460 (FIG. 1H); stomach cancer N87 (FIGS. 1D-F); colon cancer HT-29 (FIG. 1G); breast cancer MX-1 and HCC-1806 (FIGS. 1J, K); ovarian cancer SK-OV-3 and OVACAR-3 (FIGS. 1L, M) and prostate cancer PC3 (FIG. 1N). See also Table 5.

J82 cells = assay: In vitro cell viability, urothelial cancer J82; type: cell-based, human; conditions: 5 μM, 72 h; relative to MIA602 = 1; Table 3A
Procedure: The inhibitory effects of the various synthesized GHRH antagonists were tested in cell proliferation assays in various human cancer cell lines including stomach cancer (KATOIII, N87), colon cancer (HT-29), urothelial cancer (J82, RT4), pancreatic cancer (PANC-1, CFPAC-1), prostatic cancer (PC3), breast cancer (MX-1, HCC1806), ovarian cancer (SK-OV-3, OVCAR-3) and lung cancer (HCC827, H460).
as §1, with “(NCI-N87 and KATOIII), urothelial (J82, RT4), prostatic” for “(NCI-N87), prostate”, “breast” for “brest”, “HCC 1806),” for “HCC-1806),”
In vitro cell viability. Cell viability was analyzed as follows: cancer cells including pancreatic (PANC-1 and CFPAC-1), lung (HCC827 and H460), stomach (NCI-N87 and KATOIII), urothelial (J82, RT4), prostatic (PC3) and breast (MX-1 and HCC 1806), colorectal (HT-29) and ovarian (SK-OV-3 and OVCAR-3) were grown on 96 well plates to ˜60% confluence, the cells were starved for 24 h in culture medium containing 0.5% FBS. Cells were then treated with GHRH antagonists MIA602 AVR compounds at concentrations of 1, 2.5 or 5 μM, or vehicle (0.1% DMSO) in quintuplicates for 72 hours. The medium was replaced every 48 hours. Cell viability was measured using CellTiter 96 aqueous one solution kit (Promega). Inhibitory effects of tested AVR compounds in comparison to that of MIA602 are presented as inhibitory potency.
Inhibitory effects of selected AVR compounds in comparison to that of MIA602 are presented as inhibitory potency (e.g., percentage of inhibition). […] The cell lines tested including lung cancer HCC827 (FIG. 2A), pancreatic cancer CFPAC-1 (FIG. 2B), stomach cancer N87 (FIG. 2C), colon cancer HT-29 (FIG. 2D), breast cancers MX-1 and HCC1806 (FIGS. 2E, F). Based on the results of cell proliferation assay after cancer cells were treated with antagonist at concentration of 5 μM for 72H, the relative inhibitory potency of AVR antagonists in comparison to MIA-602 is summarized in Table 3 A and B. Over 60 AVR compounds were tested in 12 cancer cell lines.

Structure (SMILES)	Tumor Growth % (NCI-N87 xenograft; 2 μg/day s.c.) [%]	Relative inhibitory potency, Urothelial J82 (J82 cells)	% Inhibition (NCI-N87 xenograft; 2 μg/day s.c., vs control) [%]	Tumor Growth % (NCI-N87 xenograft; 5 μg/day s.c.) [%]
CCCC[C@H](NC(=O)[C@@H](NC(=O)[C@H](CC(=O)O)NC(=O)[C@H](CCC(N)=O)NC(=O)[C@H](CC(C)C)NC(=O)[C@H](CC(C)C)NC(=O)[C@H](CCCCN)NC(=O)[C@H](CCCNC(=N)N)NC(=O)[C@H](C)NC(=O)[C@H](CO)NC(=O)[C@H](CC(C)C)NC(=O)[C@H](CCC(N)=O)NC(=O)[C@H](CC)NC(=O)[C@H](CC(C)C)NC(=O)[C@@H](NC(=O)[C@H](CCCCN)NC(=O)[C@H](CCCNC(=N)N)NC(=O)[C@H](Cc1ccc(OC)cc1)NC(=O)[C@H](CCCCNC(=N)N)NC(=O)[C@H](C)NC(=O)[C@@H](NC(=O)[C@H](Cc1c(F)c(F)c(F)c(F)c1F)NC(=O)[C@@H](NC(=O)[C@H](C)NC(=O)[C@H](CC(=O)O)NC(=O)[C@@H](CCCNC(=N)N)NC(=O)[C@H](Cc1ccc(O)cc1)NC(=O)CCCCCCCCCCCNC(=O)Cc1c(F)c(F)c(F)c(F)c1F)[C@@H](C)CC)[C@@H](C)O)C(C)C)[C@@H](C)CC)C(=O)N[C@H](CCCNC(=N)N)C(=O)N[C@@H](CCCCNC(=N)N)C(=O)NC [AVR-235] ({Phenylacetyl(2,3,4,5,6-F5)-12Ado}-Y[dR]DAI[Phe(F5)]TA[hArg]Y(Me)RKVL[Abu]QLSARKLLQDI[Nle][dR][hArg]-NHMe)	558.60	1.518	–	–
CCCC[C@H](NC(=O)[C@@H](NC(=O)[C@H](CC(=O)O)NC(=O)[C@H](CCC(N)=O)NC(=O)[C@H](CC(C)C)NC(=O)[C@H](CC(C)C)NC(=O)[C@H](CCCN)NC(=O)[C@H](Cc1c[nH]cn1)NC(=O)[C@H](C)NC(=O)[C@H](CO)NC(=O)[C@H](CC(C)C)NC(=O)[C@H](CCC(N)=O)NC(=O)[C@H](CC)NC(=O)[C@H](CC(C)C)NC(=O)[C@@H](NC(=O)[C@H](CCCN)NC(=O)[C@H](Cc1c[nH]cn1)NC(=O)[C@H](Cc1ccc(OC)cc1)NC(=O)[C@H](CCCCNC(=N)N)NC(=O)[C@H](C)NC(=O)[C@@H](NC(=O)[C@H](Cc1c(F)c(F)c(F)c(F)c1F)NC(=O)[C@@H](NC(=O)[C@H](C)NC(=O)[C@H](CC(=O)O)NC(=O)[C@@H](CCCNC(=N)N)NC(=O)[C@H](Cc1ccc(O)cc1)NC(=O)CCCCCCCCCCCNC(=O)Cc1ccccc1)[C@@H](C)CC)[C@@H](C)O)C(C)C)[C@@H](C)CC)C(=O)N[C@H](CCCNC(=N)N)C(=O)N[C@@H](CCCCNC(=N)N)C(N)=O [MIA-602, PhAC-Ada, Tyr D-Arg, Asp, Ala, Ile, 5FPhe, Thr, Ala, Har, Tyr(Me), His, Orn, Val, Leu, Abu, Gin, Leu, Ser, Ala, His, Orn, Leu, Leu, Gin, Asp, Ile, Nle, D-Arg, Har NH2, reference compound] ({PhAc-12Ado}-Y[dR]DAI[Phe(F5)]TA[hArg]Y(Me)H[Orn]VL[Abu]QLSAH[Orn]LLQDI[Nle][dR][hArg]-NH2)	1065.00	1	13.0	767.00
